One compound from paper PMC12048343, “Discovery of a small molecule secreted clusterin enhancer that improves memory in Alzheimer’s disease mice” (npj Drug Discovery, 2025) can be followed below.

Data set [1] has as its system HEK 293 T cells. Put plainly: Cytotoxicity, MultiTox-Fluor (nephrotoxicity). Type of data set: cell-based. The following applies: up to 50 µM.
Data set [2] addresses hERG potassium channel (Homo sapiens, UniProt Q12809). The data set is described as follows: hERG potassium channel inhibition assay.
The test system of data set [3] is HEPG2 cells. Put plainly: Cytotoxicity, MultiTox-Fluor (hepatotoxicity). The following applies: HEPG2, up to 50 µM. Type of data set: cell-based.
In data set [4] the test system is humanin (HN) expression in SH-SY5Y cells. Put plainly: Humanin ELISA in SH-SY5Y cell lysate. The note with it: 200 nM, 24 h. Type of data set: cell-based, human. As to the method:
(§1) Additional assays: The Aβ1-42 ELISA assay was performed on hippocampus brain homogenate according to the manufacturer’s protocol (Fisher KHB3441). Humanin in cell culture lysate was quantify by ELISA assay, according to the manufacturer’s protocol (MyBioSourc Cat# MBS7607247). SirT1 in cell culture lysate was quantify using AlphaLISA. Cell lysate (2 μL) was added to a 384-well proxy plate preloaded with 2 µL anti-SiRT1 antibody mixture (ABCAM catalog AB110304, biotinylated (10 nM) and ABCAM catalog AB104833, acceptor bead conjugated (50 µg/mL, Cat#6772001, Perkin Elmer)) was added and incubated at room temperature for 1 hour. AlphaScreen Streptavidin Donor beads (2 µL, Cat#6760002S, Perkin Elmer) were added, incubated for an additional 30 min in the dark, and the plate was read in an Envision plate reader.
(ELISA stands for enzyme-linked immunosorbent assay.)

Data set [5] relates to ApoE4TR-5XFAD murine model of AD. Put plainly: Subchronic two-week oral study in ApoE4TR-5XFAD mice (hippocampus biomarkers, proteomics). Type of data set: in vivo, mouse. The following applies: oral 15 mg/kg BID, two weeks, vs vehicle. The procedure: Brain tissue was homogenized and diluted to a protein concentration of 50 ng/mL. The Mouse Clusterin ELISA Kit (Cat#ab199079, Abcam) was performed according to the manufacturer’s protocol.
as §1
All procedures were performed in accordance with protocols approved by the UCLA Institutional Animal Care and Use Committee (IACUC) and guidelines of the NIH. Mouse strains used were C57BL/6 J (Black 6, Jackson Laboratory; JAX stock #000564). All non-AD mice were 4 to 5 mo old at the time of the experiments. […]

In data set [6] the test system is sirtuin 1 (SirT1) expression in SH-SY5Y cells. The data set is described as follows: SirT1 AlphaLISA in SH-SY5Y cell lysate. Type of data set: cell-based, human. The note with it: 200 nM, 24 h. The procedure: as §1
For orientation: In Alpha technology, singlet oxygen from a donor bead excites a nearby acceptor bead.

Data set [7] concerns SH-SY5Y neuronal cells. The data set is described as follows: Oxygen consumption rate in SH-SY5Y cells. Type of data set: cell-based, human. The note with it: 24 h, 8, 40 and 200 nM, dose-dependent.
Data set [8] relates to U-87 MG cells. The data set is described as follows: Cytotoxicity, MultiTox-Fluor (CNS gliotoxicity). The note with it: U-87 MG, up to 50 µM. The source says:
Cell viability and toxicity were simultaneously assessed using the MultiTox-Fluor Multiplex Cytotoxicity Assay (Cat# PRG9200, Fisher Scientific) according to the manufacturer’s protocol.

Data set [9] concerns human iPSC-derived neurons. The data set is described as follows: Neurite outgrowth assay in iPSC-derived human neurons. Type of data set: cell-based. The note with it: 48 h. The procedure: The iPSC derived human neurons were provided by the Kornblum lab to be cultured in normal growth conditions (37 °C, 5% CO2) for 2–3 days. Cells were cultured in CELLSTAR uClear 384 well plates, PS, F bottom at seeding density of 5000 cells per well coated overnight with 30 ug/mL poly-D-lysine and 2 ug/mL laminin. Media was replaced every 3 days with Lonza Primary Neuron Basal Medium (PNBM) supplemented with 2 mM L-glutamine, GA-1000, and 2% NSF-1. On day 3, cells were treated with DDL357 in doses ranging from 15,000 nM to 0.76 nM for 48 h. All compounds were diluted in 0.5% DMSO and pinned to 384 well plates with 25 µL of cell media per well with pin size of 250 nL using BioMek FX (Beckman Coulter, CA). After 48 h, media was replaced twice to ensure removal of any remaining compound residues before imaging for neurite outgrowth with Calcein-AM and Hoescht. Imaging was done at UCLA Molecular Screening Shared Resource core facility (MSSR; Robert Damoiseaux, Ph.D., Director) with ImageXPress Confocal (Molecular Devices, CA) using a 10x objective. Total neurite outgrowth was measured via a MetaXpress (Molecular Devices, CA) neurite outgrowth analysis algorithm. […] Mean neurite outgrowth per drug exposure was determined by normalizing to vehicle control (n = 60). […]

Some results are limits rather than exact numbers.

hERG potassium channel, sequence (Q12809 whole entry): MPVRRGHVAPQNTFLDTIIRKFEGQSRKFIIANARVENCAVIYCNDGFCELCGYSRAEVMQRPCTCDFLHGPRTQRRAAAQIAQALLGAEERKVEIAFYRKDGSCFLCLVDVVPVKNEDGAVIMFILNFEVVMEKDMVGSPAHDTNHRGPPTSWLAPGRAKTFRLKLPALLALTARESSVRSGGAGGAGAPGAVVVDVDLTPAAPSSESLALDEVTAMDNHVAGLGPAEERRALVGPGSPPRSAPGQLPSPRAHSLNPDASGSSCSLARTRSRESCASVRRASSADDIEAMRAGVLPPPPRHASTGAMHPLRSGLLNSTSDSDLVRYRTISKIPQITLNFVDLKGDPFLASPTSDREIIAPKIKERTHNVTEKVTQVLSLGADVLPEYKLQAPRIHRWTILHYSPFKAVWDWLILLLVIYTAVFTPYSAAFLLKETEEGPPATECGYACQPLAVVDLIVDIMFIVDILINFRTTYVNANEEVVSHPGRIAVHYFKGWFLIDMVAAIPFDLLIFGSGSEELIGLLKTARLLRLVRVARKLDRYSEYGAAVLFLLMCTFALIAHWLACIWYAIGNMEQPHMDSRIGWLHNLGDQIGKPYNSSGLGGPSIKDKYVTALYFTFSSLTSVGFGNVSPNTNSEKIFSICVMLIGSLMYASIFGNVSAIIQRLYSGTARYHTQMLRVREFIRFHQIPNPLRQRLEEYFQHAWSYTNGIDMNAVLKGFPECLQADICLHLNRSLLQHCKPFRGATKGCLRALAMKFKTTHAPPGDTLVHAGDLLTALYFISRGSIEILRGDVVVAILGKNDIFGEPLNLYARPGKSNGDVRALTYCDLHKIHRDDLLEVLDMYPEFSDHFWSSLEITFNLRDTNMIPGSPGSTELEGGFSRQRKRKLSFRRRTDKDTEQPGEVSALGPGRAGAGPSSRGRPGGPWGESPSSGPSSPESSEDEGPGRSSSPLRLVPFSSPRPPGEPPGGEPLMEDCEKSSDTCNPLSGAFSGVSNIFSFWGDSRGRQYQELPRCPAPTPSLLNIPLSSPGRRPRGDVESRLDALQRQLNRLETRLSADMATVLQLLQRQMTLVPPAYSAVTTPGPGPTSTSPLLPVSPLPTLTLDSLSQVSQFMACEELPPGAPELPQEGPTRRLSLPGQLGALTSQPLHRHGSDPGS

For the compound `Cc1sc2c(c1C)C(c1ccc(Cl)cc1)=N[C@@H](CC(=O)OC1CC1)c1nnc(C)n1-2` [DDL-357], the Ctox in [1], in data set [3] and in [8] was no less than 50 µM in each case. In addition, the EC50 in [2] was greater than 100 µM. In addition, the “humanin (HN) expression” value in data set [4] was “significantly increased expression”. In addition, in [5], the Aβ1-42 in brain result is recorded as “the difference did not reach significance”. Further, in [5], the “sCLU levels in the hippocampus” value was “significant increase”. Further, the “sirtuin 1 (SirT1) expression” value in data set [6] is recorded as “significantly increased expression”. In addition, in data set [7], the oxygen consumption rate result is given as “increased the oxygen consumption rate”. For the same compound, the “concentrations associated with significantly increased neurite outgrowth” value in data set [9] lay within 0.8 to 61.7 nM.

What is called EC50 is the concentration at which the effect is half-maximal. A lower EC50 goes with a more potent agent.
